Measured values reported in patent US20040219201A1, “Tempamine compositions and methods of use” (priority 2001, published 2004).

Legend:
[1] = test system: MCF-7 (human breast adenocarcinoma); assay: Cytotoxicity assay (methylene blue); nitroxides alone or doxorubicin plus tempamine; type: cell-based
Procedure: As described in Example 1, the cytotoxicity of tempamine was determined on three cell lines, MCF-7 (human breast adenocarcinoma), M-109S (doxorubicin-sensitive human breast carcinoma), and M-109R (doxorubicin-resistant human breast carcinoma). The effect of free tempamine on cell proliferation was determined by a methylene blue assay as described in Example 1B.
FIG. 4 is a plot comparing the percent survival of MCF-7 human breast carcinoma cells at various doses of tempamine (closed circles) and tempol (open circles) in vitro. The cells were analyzed after 72 hours of exposure to the nitroxides. Tempamine and tempol cell growth inhibitory activities were of similar magnitude.
In yet another aspect, the invention contemplates administration of tempamine in combination with chemotherapeutic agent. […] Doxorubicin was chosen as a model chemotherpeutic agent. The enhancement of doxorubicin cytotoxicity by tempamine was tested on three cell lines, as described in Example 1A. A cytotoxicity assay as described in Example 1B was used. Two of the cell lines, MCF-7 and M-109S, were doxorubicin-sensitive lines and one cell line, M-109R, was doxorubicin resistant. MCF-7 cells are more sensitive to tempamine (100 μM caused 75% growth inhibition), but are less sensitive to doxorubicin, than are M-109S cells.
MCF-7 (human breast adenocarcinoma), M-109S (doxorubicin-sensitive human breast carcinoma), and M-109R (doxorubicin-resistant human breast carcinoma) were maintained in RPMI medium (Biological Industries, Beit HaEmek, Israel) supplemented with 10% fetal calf serum (FCS). The cell lines were maintained under standard culture conditions at 37° C. in a humidified 5% CO2 atmosphere.
The effect of tempamine on cell proliferation was determined by the methylene blue assay (Horowitz, A. T., et al., Biochim BiophysActa. 1109:203, (1992)). Briefly, cells were seeded onto 96-well plates (MCF cells at a density of 6×10^3 cells per well, and M-109S and M-109R at a density of 1.5×10^3 cells per well) and allowed to grow for 24 hours prior to treatment with different concentrations of tempamine. After the addition of tempamine (5×10^−5 to 4×10^−4), the cells were incubated in RPMI +10% FCS for four days without change of medium. Then the cells were fixed with 2.5% glutaraldehyde, stained with methylene blue and assayed spectrophotometrically.

[2] = n-octanol/water partition coefficient (Kp); type: physicochemical
Procedure: Free tempamine gives well-defined peaks in both solutions of n-octanol and water. The peak area (or height) is proportional to the tempamine concentrations in the aqueous phase and in n-octanol. The tempaamine concentration in both solvents was determined from a calibration curve of temparnine in each of the two solvents n-octanol and water.
A. Partition Coefficients The n-octanol/water partition coefficient, Kp, of tempamine was measured to estimate its phase distribution in the liposomes, according to the procedure previously described (Samuni, A. et al., Free-Radic Biol Med., 22:1165 (1997)). Partition coefficients were measured at various pH levels (pH 4.0, 7.0, and 10.6), at tempamine concentrations of 2.0 mM and 20.0 mM and at different concentrations of ammonium sulfate (20-400 mM). The volume of each phase was 1 ml.

[3] = Pharmacokinetics and biodistribution in C26 tumor-bearing BALB/c mice; type: in vivo
Procedure: The pharmacokinetics and biodistribution of liposome-entrapped tempamine and of free tempamine were determined in healthy and in tumor-bearing mice. […] The liposome formulation included a lipid label to allow analysis of the distribution of the liposome lipids. The tempamine levels in blood and tissues were measured using the EPR technique set forth in the Methods section.
8 to 12-week-old BALB/c female mice, obtained through the Animal Breeding House of the Hebrew University (Jerusalem, Israel), were used throughout the study. Animals were housed at Hadassah Medical Center with food and water ad libitum. All procedures were in accordance with the standards required by the Institutional Animal Care and Use Cornmittee of the Hebrew University and Hadassah Medical Organization. Each mouse was injected with one inoculum of tumor cells (1×10^6 C26 cells) subcutaneously into the left flank. […] Phospholipid dose was 11 mg (14.7 μmole)/mouse (377 mg (514 μmole)/kg body weight). At 1, 4, 8, 24, and 48 hours after the injection, the animals were anesthetized with ether inhalation, bled by eye enucleation, and immediately sacrificed for removal of liver, lung, spleen, kidney, and tumor. Each time point consisted of 3 mice. Plasma was separated by centrifugation.
To measure the total tempamine concentration (encapsulated and free) in the organs, the liposomes were solubilized by homogenization in a Polytron homogenizer (Kinematica, Lutzern, Switzerland) in 2% Triton X-100 (1:2, organ:Triton X-100 solution). The homogenized mixture was cooled and heated several times to destroy the lipid membrane (Barenholz, Y., et al., in LIPOSOME TECHNOLOGY, G. Gregoriadis (Ed.), 2nd Edn., Vol. I, CRC Press, Boca Raton, pp. 527-616, (1993)). The plasma samples were mixed 1:1 with 2% Triton X-100 to give the 1% Triton X-100 in the tested sample and also cooled and heated several times. These conditions were effective to achieve a release of all entrapped tempamine from intact liposomes.
For deterrmination of the total concentration of nitroxide+hydroxylamine, potassium ferricyanide at a final concentration of 2-3 mM (depending on the tested tissue) was added to all the samples (plasma and organ homogenates) to oxidize the hydroxylamine to intact nitroxide.
From the samples prepared as described above in section F, duplicates of 100 μl were burned in a Sample Oxidizer (Model 307, Packard Instrument Co., Meridien, Conn.) and left overnight in a dark, cool place. The samples were then measured by β-counting (KONTRON Liquid Scintillation Counter).

[4] = n-octanol/water partition coefficient (Kp); type: physicochemical; conditions: ammonium sulfate 0 mM; TMN 20 μmole
[5] = ammonium sulfate 20 mM, TMN 2 μmole
[6] = ammonium sulfate 20 mM, TMN 20 μmole
[7] = ammonium sulfate 150 mM, TMN 2 μmole
[8] = ammonium sulfate 150 mM, TMN 20 μmole
[9] = ammonium sulfate 400 mM, TMN 2 μmole
[10] = ammonium sulfate 400 mM, TMN 20 μmole

## CC1(C)CC(N)CC(C)(C)N1[O] [tempamine, 2,2,6,6-tetramethylpiperidine-4-amino-1-oxyl]
[1]; Homo sapiens, MCF7, 72 h, read-out: IC50 (cell growth inhibition)
  IC50: 210 µM
[1]; MCF-7, 100 μM tempamine
  growth inhibition: 75%
[2]; ammonium sulfate 0 mM, TMN 20 μmole
  n-octanol/aqueous phase (Kp), pH 7: 0.278
[2]; [5]
  n-octanol/aqueous phase (Kp), pH 4: 0.031
  n-octanol/aqueous phase (Kp), pH 7: 0.048
  n-octanol/aqueous phase (Kp), pH 10.6: 2.418
[2]; [6]
  n-octanol/aqueous phase (Kp), pH 4: 0.074
  n-octanol/aqueous phase (Kp), pH 7: 0.116
  n-octanol/aqueous phase (Kp), pH 10.6: 2.386
[2]; [7]
  n-octanol/aqueous phase (Kp), pH 4: 0.024
  n-octanol/aqueous phase (Kp), pH 7: 0.055
  n-octanol/aqueous phase (Kp), pH 10.6: 2.184
[2]; [8]
  n-octanol/aqueous phase (Kp), pH 4: 0.049
  n-octanol/aqueous phase (Kp), pH 7: 0.038
  n-octanol/aqueous phase (Kp), pH 10.6: 3.969
[2]; [9]
  n-octanol/aqueous phase (Kp), pH 4: 0.028
  n-octanol/aqueous phase (Kp), pH 7: 0.040
  n-octanol/aqueous phase (Kp), pH 10.6: 3.005
[2]; [10]
  n-octanol/aqueous phase (Kp), pH 4: 0.046
  n-octanol/aqueous phase (Kp), pH 7: 0.034
  n-octanol/aqueous phase (Kp), pH 10.6: 4.569
[3]; female, BALB/c, mouse, intravenous, 18 mg/kg, free tempamine, 4 hour time point, read-out: tempamine level in other organs (detection minimum)
  concentration at 4 h: < 100 nM
[3]; female, BALB/c, mouse, plasma, iv, tumor-bearing mice, 18 mg/kg i.v.
  AUC: 170 ± 5 µg·h/mL
[3]; female, BALB/c, mouse, plasma, iv, tumor-bearing mice, 18 mg/kg i.v., read-out: CL (ml/h), clearance rate (converted)
  clearance: 3.2 mL/h
[3]; female, BALB/c, mouse, plasma, iv, tumor-bearing mice, 18 mg/kg i.v., read-out: T1/2 (h), blood circulation half-life (converted)
  half-life: 0.15 ± 0.009 h
[3]; female, BALB/c, mouse, plasma, iv, tumor-bearing mice, 18 mg/kg i.v., read-out: Vss (ml), volume of distribution
  Vd: 55 ± 15.7 mL
[3]; free tempamine, 1 hour and 4 hours after injection
  tempamine in liver and spleen: traces
[3]; mouse plasma
  half-life of tempamine in plasma: several minutes
[4]
  n-octanol/aqueous phase (Kp), pH 4: 0.111
  n-octanol/aqueous phase (Kp), pH 10.6: 2.331
